Experimental data taken from patent US20230271959A1, “HETEROCYCLIC COMPOUND AS BCL-2 INHIBITOR” (Beijing Innocare Pharma Tech Co., Ltd., priority 2020, published 2023).

Columns and labels:
[1] = target: T1, human recombinant Bcl-2 protein (Homo sapiens, UniProt P10415); assay: Fluorescence polarization test for inhibition of BCL-2 binding to FITC-BIM; settings: 5 nM BCL-2, 5 nM FITC-BIM, read-out: FP BCL-2 IC50
T1 construct: purchased Beijing Yigiao Shenzhou Biotechnology Co., Ltd. 10195-HOSE
Outline: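 FP competition: compound preincubated 15 min with recombinant human Bcl-2 (diluted to 5 nM), then FITC-BIM (diluted to 5 nM) added for 30 min at room temperature in PBS pH 7.4 with 1 mM DTT. Polarization read at 480/535 nm; IC50 from 8-point 4-fold series fitted by four-parameter equation.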

[2] = target: T2, human recombinant Bcl-XL protein (Homo sapiens, UniProt Q07817); assay: Fluorescence polarization test for inhibition of BCL-XL binding to FITC-BIM; settings: 10 nM BCL-XL, 10 nM FITC-BIM, read-out: FP BCL-XL IC50
T2 construct: purchased Beijing Yiqiao Shenzhou Biotechnology Co., Ltd. 10455-H0SE
Outline: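 Human recombinant Bcl-XL (10 nM diluted stock) preincubated with compound 15 min at RT in PBS pH 7.4, 1 mM DTT, then FITC-BIM peptide (10 nM diluted stock) added for 30 min in dark. FP read at ex 480/em 535 nm; no-protein wells = 100% inhibition; IC50 from 8-point 4-fold dilution curve fit.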

[3] = tested on: RS4;11 cells (acute lymphoblastic leukemia cells); assay: RS4;11 cell proliferation, CellTilter-Glo luminescence cell viability assay; format: cell-based; settings: Homo sapiens, RS4-11; CTG readout after 48 hours
Outline: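 RS4;11 cells plated overnight were exposed for 48 h at 37 °C, 5% CO2 to an 8-point, 4-fold compound dilution series; the vehicle control contained 0.2% DMSO. Viability was read by CellTiter-Glo luminescence. Percent inhibition was referenced to no-cell and DMSO controls, and IC50 came from a four-parameter sigmoidal fit.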

T1 sequence (P10415 whole entry): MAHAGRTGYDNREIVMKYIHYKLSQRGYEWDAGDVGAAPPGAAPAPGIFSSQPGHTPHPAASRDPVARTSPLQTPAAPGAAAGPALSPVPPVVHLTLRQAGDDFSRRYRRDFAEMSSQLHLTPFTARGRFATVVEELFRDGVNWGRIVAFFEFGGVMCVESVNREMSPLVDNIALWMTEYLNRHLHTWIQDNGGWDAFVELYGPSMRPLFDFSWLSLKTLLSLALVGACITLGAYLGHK
T2 sequence (Q07817 whole entry): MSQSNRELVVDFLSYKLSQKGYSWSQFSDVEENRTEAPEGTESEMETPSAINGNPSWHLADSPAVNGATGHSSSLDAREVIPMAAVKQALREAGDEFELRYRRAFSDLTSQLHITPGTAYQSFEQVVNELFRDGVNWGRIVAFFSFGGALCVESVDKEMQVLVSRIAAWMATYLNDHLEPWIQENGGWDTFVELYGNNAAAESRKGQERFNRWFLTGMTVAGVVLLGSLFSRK

| Structure (SMILES) | IC50 [1] [nM] | IC50 [2] [nM] | IC50 [3] [nM] |
| --- | --- | --- | --- |
| C[C@H]1CN(c2ccc(C(=O)NS(=O)(=O)c3ccc(NC[C@@H]4COCCO4)c([N+](=O)[O-])c3)c(Oc3cnc4[nH]ccc4c3)c2)CCN1CC1=C(c2ccc(Cl)cc2)CC(C)(C)CC1 [Example 51, N-((4-((((R)-1,4-dioxan-2-yl)methyl)amino)-3-nitrophenyl)sulfonyl)-2-((1H-pyrrolo[2,3-b]pyridin-5-yl)oxy)-4-((S)-4-((4′-chloro-5,5-dimethyl-3,4,5,6-tetrahydro-[1,1′-biphenyl]-2-yl)methyl)-3-methylpiperazin-1-yl) benzamide] | > 100 | > 1000 | > 500 |
| C[C@H]1CN(c2ccc(C(=O)NS(=O)(=O)c3ccc(NCC4CCOCC4)c([N+](=O)[O-])c3)c(Oc3cnc4[nH]ccc4c3)c2)CCN1CC1=C(c2ccc(Cl)cc2)CC(C)(C)CC1 [Example 50, (S)-2-((1H-pyrrolo[2,3-b]pyridin-5-yl)oxy)-4-(4-((4′-chloro-5,5-dimethyl-3,4,5,6-tetrahydro-[1,1′-biphenyl]-2-yl)methyl)-3-methylpiperazin-1-yl)-N-((3-nitro-4--(((tetrahydro-2H-pyran-4-yl)methyl)amino)phenyl)sulfonyl) benzamide] | > 100 | > 1000 | > 500 |
| C[C@@H]1CN(c2ccc(C(=O)NS(=O)(=O)c3ccc(NC[C@H]4COCCO4)c([N+](=O)[O-])c3)c(Oc3cnc4[nH]ccc4c3)c2)CCN1CC1=C(c2ccc(Cl)cc2)CCC(C)(C)C1 [Example 29, N-((4-((((S)-1,4-dioxan-2-yl)methyl)amino)-3-nitrophenyl)sulfonyl)-2-((1H-pyrrolo[2,3-b]pyridin-5-yl)oxy)-4-((R)-4-((4′-chloro-4,4-dimethyl-3,4,5,6-tetrahydro-[1,1′-biphenyl]-2-yl)methyl)-3-methylpiperazin-1-yl) benzamide] | 1.6 | > 1000 | 4.2 |
| C[C@@H]1CN(c2ccc(C(=O)NS(=O)(=O)c3ccc(NCC4CCOCC4)c([N+](=O)[O-])c3)c(Oc3cnc4[nH]ccc4c3)c2)CCN1CC1=C(c2ccc(Cl)cc2)CC(C)(C)C2(CC2)C1 [Example 31, (R)-2-((1H-Pyrrolo[2,3-b]pyridin-5-yl)oxy)-4-(4-((6-(4-chlorophenyl)-8,8-dimethylspiro[2.5]oct-5-en-5-yl)methyl)-3-methylpiperazin-1-yl)-N-((3-nitro-4-(((tetrahydro-2H-pyran-4-yl)methyl)amino)phenyl)sulfonyl)benzamide] | 3.57 | > 1000 | 8.1 |
| C[C@@H]1CN(c2ccc(C(=O)NS(=O)(=O)c3ccc(NCC4CCOCC4)c([N+](=O)[O-])c3)c(Oc3cnc4[nH]ccc4c3)c2)CCN1CC1=C(c2ccc(Cl)cc2)CC(C)(C)C(C)(C)C1 [Example 39, (R)-2-((1H-pyrrolo[2,3-b]pyridin-5-yl)oxy)-4-(4-((4′-chloro-4,4,5,5-tetramethyl-3,4,5,6-tetrahydro-[1,1′-biphenyl]-2-yl)methyl)-3-methylpiperazin-1-yl)-N-((3-nitro-4--(((tetrahydro-2H-pyran-4-yl)methyl)amino)phenyl)sulfonyl)benzamide] | 2.68 | > 1000 | 14.5 |
| C[C@@H]1CN(c2ccc(C(=O)NS(=O)(=O)c3cc(F)c(NCC4CCOCC4)c([N+](=O)[O-])c3)c(Oc3cnc4[nH]ccc4c3)c2)CCN1CC1=C(c2ccc(Cl)cc2)CC(C)(C)C(C)(C)C1 [Example 40] | 1.77 | > 1000 | 15 |
| C[C@@H]1CN(CC2=C(c3ccc(Cl)cc3)CC(C)(C)CC2)CCN1c1ccc(C(=O)NS(=O)(=O)c2ccc(NCC3CCN(C4COC4)CC3)c([N+](=O)[O-])c2)c(Oc2cnc3[nH]ccc3c2)c1 [Example 9, (R)-2-((1H-pyrrolo[2,3-b]pyridin-5-yl)oxy)-4-(4-((4′-chloro-5,5-dimethyl-3,4,5,6-tetrahydro-[1,1′-biphenyl]-2-yl)methyl)-2-methylpiperazin-1-yl)-N-((3-nitro-4-(((1-(3-oxetan-yl)piperidin-4-yl)methyl)amino)phenyl)sulfonyl) benzamide] | 5.03 | > 1000 | 26 |
| C[C@@H]1CN(c2ccc(C(=O)NS(=O)(=O)c3ccc(NC[C@@H]4COCCO4)c([N+](=O)[O-])c3)c(Oc3cnc4[nH]ccc4c3)c2)CCN1CC1=C(c2ccc(Cl)cc2)CCC(C)(C)C1 [Example 54, N-((4-((((R)-1,4-dioxan-2-yl)methyl)amino)-3-nitrophenyl)sulfonyl)-2-((1H-pyrrolo[2,3-b]pyridin-5-yl)oxy)-4-((R)-4-((4′-chloro-4,4-dimethyl-3,4,5,6-tetrahydro-[1,1′-biphenyl]-2-yl)methyl)-3-methylpiperazin-1-yl)benzamide] | 11 | > 1000 | 25 |

Continued, values first:

| IC50 [1] [nM] | IC50 [2] [nM] | IC50 [3] [nM] | Structure (SMILES) |
| --- | --- | --- | --- |
| 2.56 | > 1000 | 11.1 | C[C@@H]1CN(c2ccc(C(=O)NS(=O)(=O)c3ccc(NCC4CCOCC4)c([N+](=O)[O-])c3)c(Oc3cnc4[nH]ccc4c3)c2)CCN1CC1=C(c2ccc(Cl)cc2)CC(C)(C)CC1 [Example 2, (R)-2-((1H-pyrrolo[2,3-b]pyridin-5-yl)oxy)-4-(4-((4′-chloro-5,5-dimethyl-3,4,5,6-tetrahydro-[1,1′-biphenyl]-2-yl)methyl)-3-methylpiperazin-1-yl)-N-((3-nitro-4-(((tetrahydro-2H-pyran-4-yl)methyl)amino)phenyl)sulfonyl) benzamide] |
| > 100 | > 1000 | 486 | C[C@H]1CN(c2ccc(C(=O)NS(=O)(=O)c3cc(F)c(NC[C@H]4COCCO4)c([N+](=O)[O-])c3)c(Oc3cnc4[nH]ccc4c3)c2)CCN1CC1=C(c2ccc(Cl)cc2)CC(C)(C)CC1 [Example 47, N-((4-((((S)-1,4-dioxan-2-yl)methyl)amino)-3-fluoro-5-nitrophenyl)sulfonyl)-2-((1H-pyrrolo[2,3-b]pyridin-5-yl)oxy)-4-((S)-4-((4′-chloro-5,5-dimethyl-3,4,5,6-tetrahydro-[1,1′-biphenyl]-2-yl)methyl)-3-methylpiperazin-1-yl) benzamide] |
| 4.89 | > 1000 | 16 | C[C@@H]1CN(CC2=C(c3ccc(Cl)cc3)CC(C)(C)CC2)CCN1c1ccc(C(=O)NS(=O)(=O)c2ccc(NC[C@H]3COCCO3)c([N+](=O)[O-])c2)c(Oc2cnc3[nH]ccc3c2)c1 [Example 12] |
| 3.41 | > 1000 | 8.8 | C[C@H]1CCC(CN2CCN(c3ccc(C(=O)NS(=O)(=O)c4ccc(NC[C@H]5COCCO5)c([N+](=O)[O-])c4)c(Oc4cnc5[nH]ccc5c4)c3)C[C@H]2C)=C(c2ccc(Cl)cc2)C1 [Example 16, N-((4-((((S)-1,4-dioxan-2-yl)methyl)amino)-3-nitrophenyl)sulfonyl)-2-((1H-pyrrolo[2,3-b]pyridin-5-yl)oxy)-4-((R)-4-(((S)-4′-chloro-5-methyl-3,4,5,6-tetrahydro-[1,1′-biphenyl]-2-yl)methyl)-3-methylpiperazin-1-yl) benzamide] |
| 0.84 | 831 | 2.3 | C[C@@H]1CN(c2ccc(C(=O)NS(=O)(=O)c3cc(F)c(NC[C@H]4COCCO4)c([N+](=O)[O-])c3)c(Oc3cnc4[nH]ccc4c3)c2)CCN1CC1=C(c2ccc(Cl)cc2)CCC(C)(C)C1 [Example 30, N-((4-((((S)-1,4-dioxan-2-yl)methyl)amino)-3-fluoro-5-nitrophenyl)sulfonyl)-2-((1H-pyrrolo[2,3-b]pyridin-5-yl)oxy)-4-((R)-4-((4′-chloro-4,4-dimethyl-3,4,5,6-tetrahydro-[1,1′-biphenyl]-2-yl)methyl)-3-methylpiperazin-1-yl)benzamide] |
| > 100 | > 1000 | > 500 | C[C@H]1CN(c2ccc(C(=O)NS(=O)(=O)c3ccc(NC[C@@H]4COCCO4)c([N+](=O)[O-])c3)c(Oc3cnc4[nH]ccc4c3)c2)CCN1CC1=C(c2ccc(Cl)cc2)CCC(C)(C)C1 [Example 53, N-((4-((((R)-1,4-dioxan-2-yl)methyl)amino)-3-nitrophenyl)sulfonyl)-2-((1H-pyrrolo[2,3-b]pyridin-5-yl)oxy)-4-((S)-4-((4′-chloro-4,4-dimethyl-3,4,5,6-tetrahydro-[1,1′-biphenyl]-2-yl)methyl)-3-methylpiperazin-1-yl)benzamide] |
| 1.09 | > 1000 | 18 | C[C@@H]1CN(CC2=C(c3ccc(Cl)cc3)CC(C)(C)CC2)CCN1c1ccc(C(=O)NS(=O)(=O)c2cc(F)c(NC[C@H]3COCCO3)c([N+](=O)[O-])c2)c(Oc2cnc3[nH]ccc3c2)c1 [Example 46] |
| 1.9 | > 1000 | 5.1 | C[C@@H]1CN(c2ccc(C(=O)NS(=O)(=O)c3ccc(NC[C@@H]4COCCO4)c([N+](=O)[O-])c3)c(Oc3cnc4[nH]ccc4c3)c2)CCN1CC1=C(c2ccc(Cl)cc2)CC(C)(C)CC1 [Example 52, N-((4-((((R)-1,4-dioxan-2-yl)methyl)amino)-3-nitrophenyl)sulfonyl)-2-((1H-pyrrolo [2,3-b]pyridin-5-yl)oxy)-4-((R)-4-((4′-chloro-5,5-dimethyl-3,4,5,6-tetrahydro-[1,1′-biphenyl]-2-yl)methyl)-3-methylpiperazin-1-yl) benzamide] |
